Earlier results as cited in patent publication US20120070472A1, “CHRONOTHERAPEUTIC COMPOSITIONS AND METHODS OF THEIR USE” (Circ Pharma Research & Development Limited, priority 2004, published 2012).
Read-outs that look alike come from different tables or passages of the source.

| Structure (SMILES) | Elimination Half-Life (in vivo) | Elimination Half-Life (i/v) | Elimination Half-Life (po) |
| --- | --- | --- | --- |
| CC(C)(C)NC[C@H](O)COc1nsnc1N1CCOCC1 [Timolol] | 4.1 h |  |  |
| CC(C)N(CCC(C(N)=O)(c1ccccc1)c1ccccn1)C(C)C (stereo not drawn) [Disopyramide] | 6.0 h |  |  |
| NS(=O)(=O)c1cc2c(cc1Cl)NCNS2(=O)=O [Hydrochlorothiazide] | 2.5 h |  |  |
| COc1ccc([C@@H]2Sc3ccccc3N(CCN(C)C)C(=O)[C@@H]2OC(C)=O)cc1 [Diltiazem] | 3.7 h |  |  |
| NS(=O)(=O)c1cc2c(cc1Cl)N=CNS2(=O)=O [Chlorothiazide] | 1.5 h |  |  |
| CC(=O)S[C@@H]1CC2=CC(=O)CC[C@]2(C)[C@H]2CC[C@@]3(C)[C@@H](CC[C@@]34CCC(=O)O4)[C@H]12 [Spironolactone] | 1.6 h |  |  |
| NNc1nncc2ccccc12 [Hydralazine] | 1.0 h |  |  |
| O=C(NCCO[N+](=O)[O-])c1cccnc1 [Nicorandil] | 1.1 h |  |  |

Continued, values first:

| Elimination Half-Life (in vivo) | Elimination Half-Life (i/v) | Elimination Half-Life (po) | Structure (SMILES) |
| --- | --- | --- | --- |
| 3.9 h |  |  | CC(C)NCC(O)COc1cccc2ccccc12 (stereo not drawn) [Propranolol] |
| 4.9 h |  |  | CC(CCc1ccccc1)NCC(O)c1ccc(O)c(C(N)=O)c1 (stereo not drawn) [Labetalol] |
| 6.0 h |  |  | CCN(CC)CCNC(=O)c1ccc(NC(C)=O)cc1 [n-Acetylprocainamide] |
|  | 2.4 h | 6.4 h | COc1ccccc1OCCNCC(O)COc1cccc2[nH]c3ccccc3c12 (stereo not drawn) [Carvedilol] |
| 2.5 h |  |  | C=CCOc1ccccc1OCC(O)CNC(C)C (stereo not drawn) [Oxprenolol] |
| 3.8 h |  |  | COC(=O)C1=C(C)NC(C)=C(C(=O)OC(C)C)C1c1cccc2nonc12 (stereo not drawn) [Isradipine] |
| 2.7 h |  |  | CCCC(=O)Nc1ccc(OCC(O)CNC(C)C)c(C(C)=O)c1 (stereo not drawn) [Acebutolol] |
| 3.6 h |  |  | CC(C)NCC(O)COc1cccc2[nH]ccc12 (stereo not drawn) [Pindolol] |
| 2.5 h |  |  | C=CCc1ccccc1OCC(O)CNC(C)C (stereo not drawn) [Alprenolol] |
